Values of other authors as cited in patent US20040208942A1, “Alpha lipoic acid based food supplement for increasing lean muscle mass and strength” (priority 2000, published 2004).

O=C(O)CCCCC1CCSS1 (stereo not drawn) [α lipoic acid]
body's utilization of blood sugar (type II diabetes): significantly increase
increase of the metabolic clearance rate of glucose (type II diabetics): 50%
